From ChEMBL document CHEMBL5058643, “Data for DCP probe BI-2081” (2022)

How the values were obtained:
Settings in all cases: Compound concentration 10.0 uM
[1] = target: 5-hydroxytryptamine receptor 2C (Homo sapiens) (UniProt P28335)
[2] = target: Histamine H4 receptor (Homo sapiens) (UniProt Q9H3N8)
[3] = target: T1, 5-hydroxytryptamine receptor 3A (Homo sapiens) (UniProt P46098)
T1 sequence (whole entry): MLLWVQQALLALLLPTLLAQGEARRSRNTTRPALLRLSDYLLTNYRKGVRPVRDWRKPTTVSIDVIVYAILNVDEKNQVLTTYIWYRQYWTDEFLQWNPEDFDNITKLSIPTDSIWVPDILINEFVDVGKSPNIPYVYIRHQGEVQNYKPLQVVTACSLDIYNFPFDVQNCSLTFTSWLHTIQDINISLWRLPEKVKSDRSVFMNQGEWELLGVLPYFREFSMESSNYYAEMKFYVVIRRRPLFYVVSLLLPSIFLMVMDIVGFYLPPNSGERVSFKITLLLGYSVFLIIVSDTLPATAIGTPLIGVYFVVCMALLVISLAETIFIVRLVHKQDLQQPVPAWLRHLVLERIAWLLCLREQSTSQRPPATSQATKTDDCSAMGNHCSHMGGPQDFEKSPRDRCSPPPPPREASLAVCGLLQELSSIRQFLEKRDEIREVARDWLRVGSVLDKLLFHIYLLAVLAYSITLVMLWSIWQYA

[4] = target: 5-hydroxytryptamine receptor 6 (Homo sapiens) (UniProt P50406)
5-hydroxytryptamine receptor 6 (Homo sapiens), sequence (P50406 whole entry): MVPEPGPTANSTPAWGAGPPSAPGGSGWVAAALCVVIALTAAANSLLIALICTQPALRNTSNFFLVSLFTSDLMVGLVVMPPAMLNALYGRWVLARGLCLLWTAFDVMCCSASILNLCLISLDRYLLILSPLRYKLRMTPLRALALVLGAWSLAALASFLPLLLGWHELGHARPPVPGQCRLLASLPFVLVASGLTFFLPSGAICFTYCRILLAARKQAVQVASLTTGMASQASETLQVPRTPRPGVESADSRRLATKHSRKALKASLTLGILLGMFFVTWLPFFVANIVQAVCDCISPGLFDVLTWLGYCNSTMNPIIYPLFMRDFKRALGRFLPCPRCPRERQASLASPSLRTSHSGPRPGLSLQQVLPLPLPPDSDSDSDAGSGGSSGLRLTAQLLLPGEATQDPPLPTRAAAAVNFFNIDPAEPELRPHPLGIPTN

[5] = target: Sigma intracellular receptor 2 (Homo sapiens) (UniProt Q5BJF2)
Sigma intracellular receptor 2 (Homo sapiens), sequence (Q5BJF2 whole entry): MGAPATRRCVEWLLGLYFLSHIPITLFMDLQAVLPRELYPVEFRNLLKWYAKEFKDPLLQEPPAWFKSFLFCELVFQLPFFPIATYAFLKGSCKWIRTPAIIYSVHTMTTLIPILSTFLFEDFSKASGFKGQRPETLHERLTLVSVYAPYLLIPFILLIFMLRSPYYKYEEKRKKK

[6] = target: D(1A) dopamine receptor (Homo sapiens) (UniProt P21728)
D(1A) dopamine receptor (Homo sapiens), sequence (P21728 whole entry): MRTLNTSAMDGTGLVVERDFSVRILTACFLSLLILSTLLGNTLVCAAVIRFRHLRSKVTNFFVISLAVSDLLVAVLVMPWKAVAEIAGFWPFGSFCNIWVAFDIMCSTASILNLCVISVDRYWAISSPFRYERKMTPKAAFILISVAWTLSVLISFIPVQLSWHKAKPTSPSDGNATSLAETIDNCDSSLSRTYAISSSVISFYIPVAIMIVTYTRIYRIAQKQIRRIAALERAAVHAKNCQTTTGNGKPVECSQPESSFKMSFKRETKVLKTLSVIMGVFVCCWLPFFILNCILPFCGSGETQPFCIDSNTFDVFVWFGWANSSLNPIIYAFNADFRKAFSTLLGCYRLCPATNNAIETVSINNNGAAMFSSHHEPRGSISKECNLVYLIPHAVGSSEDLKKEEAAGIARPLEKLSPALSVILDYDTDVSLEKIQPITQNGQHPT

[7] = target: T2, Alpha-2C adrenergic receptor (Homo sapiens) (UniProt P18825)
T2 sequence (whole entry): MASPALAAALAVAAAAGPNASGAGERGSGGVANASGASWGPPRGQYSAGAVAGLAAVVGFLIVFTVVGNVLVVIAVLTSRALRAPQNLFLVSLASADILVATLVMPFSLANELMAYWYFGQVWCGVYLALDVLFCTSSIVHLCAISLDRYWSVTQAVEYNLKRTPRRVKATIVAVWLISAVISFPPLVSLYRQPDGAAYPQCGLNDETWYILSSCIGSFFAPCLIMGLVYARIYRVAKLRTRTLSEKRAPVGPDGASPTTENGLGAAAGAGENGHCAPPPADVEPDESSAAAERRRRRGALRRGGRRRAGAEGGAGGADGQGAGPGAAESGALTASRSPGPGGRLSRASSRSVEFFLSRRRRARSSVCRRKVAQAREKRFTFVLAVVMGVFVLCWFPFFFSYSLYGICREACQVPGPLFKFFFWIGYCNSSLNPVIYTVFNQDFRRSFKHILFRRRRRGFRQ

[8] = target: T3, Muscarinic acetylcholine receptor M1 (Homo sapiens) (UniProt P11229)
T3 sequence (whole entry): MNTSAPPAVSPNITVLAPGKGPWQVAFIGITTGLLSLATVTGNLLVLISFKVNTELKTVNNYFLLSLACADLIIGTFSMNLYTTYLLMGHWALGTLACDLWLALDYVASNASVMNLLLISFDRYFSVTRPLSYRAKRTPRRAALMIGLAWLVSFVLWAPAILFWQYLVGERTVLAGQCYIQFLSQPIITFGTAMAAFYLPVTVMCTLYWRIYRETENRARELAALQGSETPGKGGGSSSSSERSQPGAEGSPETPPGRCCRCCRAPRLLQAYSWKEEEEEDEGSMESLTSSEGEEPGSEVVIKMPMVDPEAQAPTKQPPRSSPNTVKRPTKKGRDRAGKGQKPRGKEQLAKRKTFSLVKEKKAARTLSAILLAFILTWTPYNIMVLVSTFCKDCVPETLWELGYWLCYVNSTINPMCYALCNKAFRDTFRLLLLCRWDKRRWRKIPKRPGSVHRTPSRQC

[9] = target: 5-hydroxytryptamine receptor 2A (Homo sapiens) (UniProt P28223)
5-hydroxytryptamine receptor 2A (Homo sapiens), sequence (P28223 whole entry): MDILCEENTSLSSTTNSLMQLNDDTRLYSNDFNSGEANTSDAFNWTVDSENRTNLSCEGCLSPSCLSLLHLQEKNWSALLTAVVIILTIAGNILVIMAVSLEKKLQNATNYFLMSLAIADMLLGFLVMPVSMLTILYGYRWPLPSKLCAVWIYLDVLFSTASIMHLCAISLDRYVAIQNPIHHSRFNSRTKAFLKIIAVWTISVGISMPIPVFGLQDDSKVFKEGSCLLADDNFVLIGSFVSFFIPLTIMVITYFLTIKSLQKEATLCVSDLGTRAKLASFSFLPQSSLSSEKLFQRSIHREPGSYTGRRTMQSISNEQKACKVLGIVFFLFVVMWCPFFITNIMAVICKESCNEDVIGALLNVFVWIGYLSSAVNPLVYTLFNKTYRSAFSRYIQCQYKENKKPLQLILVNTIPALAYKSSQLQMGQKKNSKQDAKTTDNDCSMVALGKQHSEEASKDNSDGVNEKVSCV

[10] = target: T4, Muscarinic acetylcholine receptor M2 (Homo sapiens) (UniProt P08172)
T4 sequence (whole entry): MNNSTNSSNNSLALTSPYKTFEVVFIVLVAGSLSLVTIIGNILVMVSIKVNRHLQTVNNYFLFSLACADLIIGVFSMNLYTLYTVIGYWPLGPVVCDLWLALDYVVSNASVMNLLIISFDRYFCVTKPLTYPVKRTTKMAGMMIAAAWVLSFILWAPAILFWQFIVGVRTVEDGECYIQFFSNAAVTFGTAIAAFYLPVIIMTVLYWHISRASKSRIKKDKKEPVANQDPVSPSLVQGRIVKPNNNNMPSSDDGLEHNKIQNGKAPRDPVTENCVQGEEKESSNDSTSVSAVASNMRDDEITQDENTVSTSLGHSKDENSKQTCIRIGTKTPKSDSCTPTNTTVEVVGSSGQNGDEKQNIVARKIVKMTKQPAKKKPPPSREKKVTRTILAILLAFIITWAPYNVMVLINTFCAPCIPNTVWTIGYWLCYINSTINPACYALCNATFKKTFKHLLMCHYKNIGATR

[11] = target: D(2) dopamine receptor (Homo sapiens) (UniProt P14416)
D(2) dopamine receptor (Homo sapiens), sequence (P14416 whole entry): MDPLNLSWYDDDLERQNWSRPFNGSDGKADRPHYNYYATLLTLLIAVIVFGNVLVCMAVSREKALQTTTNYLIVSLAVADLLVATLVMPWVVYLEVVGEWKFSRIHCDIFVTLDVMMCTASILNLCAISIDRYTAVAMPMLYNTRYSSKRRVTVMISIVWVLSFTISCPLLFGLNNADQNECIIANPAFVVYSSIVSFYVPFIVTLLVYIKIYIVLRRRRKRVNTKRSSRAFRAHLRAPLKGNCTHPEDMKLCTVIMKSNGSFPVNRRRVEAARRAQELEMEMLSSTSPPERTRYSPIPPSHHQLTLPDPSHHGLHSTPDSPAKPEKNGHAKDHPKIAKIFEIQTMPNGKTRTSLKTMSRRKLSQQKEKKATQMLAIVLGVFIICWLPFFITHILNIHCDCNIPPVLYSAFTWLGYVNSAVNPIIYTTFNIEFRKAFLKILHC

[12] = target: T5, Alpha-2B adrenergic receptor (Homo sapiens) (UniProt P18089)
T5 sequence (whole entry): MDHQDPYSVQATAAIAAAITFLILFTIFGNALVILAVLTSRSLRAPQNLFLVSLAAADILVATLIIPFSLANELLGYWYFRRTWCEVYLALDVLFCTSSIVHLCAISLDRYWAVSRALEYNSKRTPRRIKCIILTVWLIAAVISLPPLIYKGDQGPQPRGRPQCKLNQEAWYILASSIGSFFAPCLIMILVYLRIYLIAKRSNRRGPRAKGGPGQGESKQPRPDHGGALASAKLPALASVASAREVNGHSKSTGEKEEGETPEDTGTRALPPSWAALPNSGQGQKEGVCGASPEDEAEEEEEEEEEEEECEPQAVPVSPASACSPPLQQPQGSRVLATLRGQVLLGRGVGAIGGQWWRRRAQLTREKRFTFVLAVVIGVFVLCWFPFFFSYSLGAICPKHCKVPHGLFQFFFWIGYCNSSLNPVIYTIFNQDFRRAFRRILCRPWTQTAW

[13] = target: Sodium-dependent noradrenaline transporter (Homo sapiens) (UniProt P23975)
Sodium-dependent noradrenaline transporter (Homo sapiens), sequence (P23975 whole entry): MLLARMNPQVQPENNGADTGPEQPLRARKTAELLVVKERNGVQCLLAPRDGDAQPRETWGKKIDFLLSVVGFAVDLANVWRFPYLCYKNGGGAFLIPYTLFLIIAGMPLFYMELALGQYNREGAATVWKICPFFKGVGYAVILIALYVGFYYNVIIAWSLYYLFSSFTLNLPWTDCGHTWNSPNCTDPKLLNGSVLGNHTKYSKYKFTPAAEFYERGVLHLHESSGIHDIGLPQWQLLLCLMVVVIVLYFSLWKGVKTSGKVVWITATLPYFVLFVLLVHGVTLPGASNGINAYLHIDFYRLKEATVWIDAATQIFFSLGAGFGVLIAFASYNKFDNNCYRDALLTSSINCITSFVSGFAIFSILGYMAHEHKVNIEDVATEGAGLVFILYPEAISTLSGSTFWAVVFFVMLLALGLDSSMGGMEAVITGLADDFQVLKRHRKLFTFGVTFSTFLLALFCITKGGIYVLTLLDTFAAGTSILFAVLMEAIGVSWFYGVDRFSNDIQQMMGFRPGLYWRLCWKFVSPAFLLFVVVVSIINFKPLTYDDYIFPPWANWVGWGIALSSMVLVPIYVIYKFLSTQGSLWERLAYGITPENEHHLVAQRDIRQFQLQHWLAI

[14] = target: D(3) dopamine receptor (Homo sapiens) (UniProt P35462)
D(3) dopamine receptor (Homo sapiens), sequence (P35462 whole entry): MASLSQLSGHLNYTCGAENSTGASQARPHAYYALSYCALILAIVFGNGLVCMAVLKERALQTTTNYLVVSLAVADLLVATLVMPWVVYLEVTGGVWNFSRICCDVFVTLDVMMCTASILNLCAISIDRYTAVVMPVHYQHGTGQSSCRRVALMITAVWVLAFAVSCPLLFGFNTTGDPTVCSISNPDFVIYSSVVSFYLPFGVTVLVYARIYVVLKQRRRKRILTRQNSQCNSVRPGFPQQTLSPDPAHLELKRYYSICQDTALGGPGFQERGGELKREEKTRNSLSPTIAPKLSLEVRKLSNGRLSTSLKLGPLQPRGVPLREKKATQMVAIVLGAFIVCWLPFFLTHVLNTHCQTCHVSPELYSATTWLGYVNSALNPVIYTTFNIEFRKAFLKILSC

Measured: inhibition

5-hydroxytryptamine receptor 2C (Homo sapiens), sequence (P28335 whole entry): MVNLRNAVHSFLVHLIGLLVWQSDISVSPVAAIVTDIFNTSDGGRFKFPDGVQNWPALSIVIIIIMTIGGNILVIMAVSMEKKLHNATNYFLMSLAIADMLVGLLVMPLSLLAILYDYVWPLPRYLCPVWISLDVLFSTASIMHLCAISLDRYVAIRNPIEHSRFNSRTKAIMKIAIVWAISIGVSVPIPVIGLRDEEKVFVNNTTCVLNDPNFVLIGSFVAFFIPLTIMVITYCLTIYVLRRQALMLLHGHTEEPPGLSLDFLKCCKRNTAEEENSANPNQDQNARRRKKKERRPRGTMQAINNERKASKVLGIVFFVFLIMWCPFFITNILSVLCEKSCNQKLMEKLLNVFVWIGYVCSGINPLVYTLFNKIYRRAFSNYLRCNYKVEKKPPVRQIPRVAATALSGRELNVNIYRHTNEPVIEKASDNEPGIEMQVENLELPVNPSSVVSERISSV
Histamine H4 receptor (Homo sapiens), sequence (Q9H3N8 whole entry): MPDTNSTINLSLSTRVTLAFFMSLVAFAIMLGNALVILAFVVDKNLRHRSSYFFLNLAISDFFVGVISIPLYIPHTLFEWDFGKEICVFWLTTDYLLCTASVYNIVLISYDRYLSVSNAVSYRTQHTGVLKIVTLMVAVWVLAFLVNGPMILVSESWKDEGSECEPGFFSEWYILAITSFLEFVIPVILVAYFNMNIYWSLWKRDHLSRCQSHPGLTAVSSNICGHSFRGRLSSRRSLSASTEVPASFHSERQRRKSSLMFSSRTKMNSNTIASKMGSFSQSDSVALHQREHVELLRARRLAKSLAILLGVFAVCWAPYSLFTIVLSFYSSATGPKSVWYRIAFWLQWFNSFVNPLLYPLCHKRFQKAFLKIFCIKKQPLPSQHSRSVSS

COCCCS(=O)(=O)c1cc(C)c(-c2ccc(F)c3c2CC[C@H]3Oc2ccc3c(c2)OC[C@H]3CC(=O)O)c(C)c1
inactive: [1] 2.87% | [2] -2.95% | [3] 1.85% | [4] -8.04% | [5] -0.91% | [6] -9.32% | [7] 5.58% | [8] 7.17% | [9] -2.26% | [10] -3.61% | [11] 8.15% | [12] 3.95% | [13] 11.1% | [14] 20.4%

Cc1cc(OCCC(C)(C)O)cc(C)c1-c1ccc(F)c2c1CC[C@H]2Oc1ccc2c(c1)OC[C@H]2CC(=O)O
inactive: [1] -4.94% | [2] -5.97% | [3] 9.64% | [4] -2.53% | [5] 13.1% | [6] 0.05% | [7] 14.5% | [8] -3.94% | [9] -0.3% | [10] -3.23% | [11] 3.28% | [12] -1.99% | [13] 9.38% | [14] -6.42%
